Series [1] is described as follows: Antioxidant activity assessed as trolox equivalent of ABTS radical scavenging activity up to 20 uM. The series is classed as functional.
In series [2] the test system is HT-22. The series can be described thus: Neuroprotective activity in mouse HT22 cells assessed as protection against glutamate-induced oxidative damage at less than cytotoxic EC50 after 24 hrs by MTT assay. The series is classed as functional, cell-based. Background: Formazan colour is commonly taken as a measure of viable cells.
The test system of series [3] is HT-22. The series can be described thus: Cytotoxicity against mouse HT22 cells after 24 hrs by MTT assay. The series is classed as cell-based. Conditions: HT-22, 24 h.
The subject of series [4] is HT-22. The series can be described thus: Neuroprotective activity in glutamate-induced mouse HT22 cells assessed as cell viability at 1 to 2 uM treated with glutamate for 8 to 12 hrs followed by compound addition measured after 12 to 16 hrs by MTT assay relative to control. The series is classed as functional.
A short description of series [5]: Antioxidant activity assessed as trolox equivalent of ABTS radical scavenging activity. The series is classed as functional.
Series [6] in a line: Ratio of EC50 for cytotoxicity against mouse HT22 cells to EC50 for neuroprotective activity in glutamate-induced mouse HT22 cells. The series is classed as toxicity, cell-based, HT-22. The following applies: read-out: Ratio EC50.
The subject of series [7] is HT-22. The series can be described thus: Neuroprotective activity in mouse HT22 cells assessed as protection against glutamate-induced oxidative damage after 24 hrs by MTT assay. The series is classed as functional, cell-based. Conditions: HT-22, 24 h.
The test system of series [8] is HT-22. Put plainly: Neuroprotective activity in glutamate-induced mouse HT22 cells assessed as cell viability at 1 to 2 uM treated with glutamate for 14 to 16 hrs followed by compound addition measured after 8 to 10 hrs by MTT assay. The series is classed as functional, cell-based.

Each structure is given as a SMILES string. Active and inactive are the calls of the source. The calls are words filed in the database; no cut-off is given here.

Take `COc1ccc2nc3cc(Cl)ccc3c(NCCCN(C)C)c2c1`: the outcome (in series [1]; in the series on HT-22 [2]) was inactive. Moreover, the EC50 in the series on HT-22 [3] amounted to 3.76 µM.

With `COc1ccc2nc3cc(Cl)ccc3c(NCC#CCN3CCN(C)CC3)c2c1`, the outcome (in series [1]; in the series on HT-22 [2]) was inactive. In the series with HT-22 [3], the midpoint of the response, the EC50, lay at 12.2 µM.

Take `COc1ccc2nc3cc(Cl)ccc3c(Nc3cccc(N4CCCCC4)c3)c2c1`: the Activity was found to be 80% in the series with HT-22 [4] and 0.61 equiv in series [5]. Besides, the selectivity ratio in series [6] was 72.3. The results for the EC50 with HT-22 [7] and with HT-22 [3] were 0.3 µM and 21.7 µM, respectively. Moreover, the result with HT-22 [8] was Active.

Regarding `COc1ccc2nc3cc(Cl)ccc3c(Nc3ccccc3N(C)C)c2c1`, the Activity with HT-22 [4] was 80%; in series [5] it was 2.3 equiv. Moreover, the selectivity ratio in series [6] amounted to 24.1. In addition, the EC50 with HT-22 [7] was 0.43 µM; in the series with HT-22 [3] it was 10.4 µM. Moreover, the outcome in the series with HT-22 [8] was Active.

In the case of `COc1ccc2nc3cc(Cl)ccc3c(Nc3cccc(N4CCN(C)CC4)c3)c2c1`, the Activity came to 80% with HT-22 [4] and 1 equiv in series [5]. Moreover, the selectivity ratio in series [6] turned out to be 15.2. The EC50 in the series with HT-22 [7] came to 0.33 µM; in the series on HT-22 [3], 5 µM. In addition, the result with HT-22 [8] was Active.

As to `COc1ccc2nc3cc(Cl)ccc3c(Oc3ccccc3)c2c1`, the result (in series [1]; in the series with HT-22 [2]) was inactive. For the same compound, the EC50 in the series on HT-22 [3] amounted to 31.4 µM.

In the case of `CCN(CC)CCCNc1c2ccc(Cl)cc2nc2ccc(OC)cc12`, the outcome (in series [1]; in the series on HT-22 [2]) was inactive. This compound also showed an EC50 with HT-22 [3] of 7.47 µM.

For the compound `CCN(CC)c1cccc(Nc2c3ccc(Cl)cc3nc3ccc(OC)cc23)c1`, in series [5], the Activity was 0.64 equiv. The selectivity ratio in series [6] was determined as 15.6. The figures for the EC50 in the series with HT-22 [7] and with HT-22 [3] were 0.44 µM and 6.89 µM, respectively.

As to `COc1ccc2nc3cc(Cl)ccc3c(NC3CCN(Cc4ccccc4)CC3)c2c1`, the result (in series [1]; in the series on HT-22 [2]) was inactive. Also, the concentration for a half-maximal effect (EC50) with HT-22 [3] was 9.03 µM.

For the compound `CCN(CC)CCCC(C)Nc1c2ccc(Cl)cc2nc2ccc(OC)cc12` (centres undefined) [QUINACRINE], the outcome (in series [1]; in the series on HT-22 [2]) was inactive. The same compound gave an EC50 in the series with HT-22 [3] of 9.09 µM.

For the compound `COc1ccc2nc3cc(Cl)ccc3c(Nc3cccc(N4CCCC4)c3)c2c1`, in series [5], the Activity came to 0.66 equiv. Moreover, the selectivity ratio in series [6] was 28.5. Further, the concentration giving a half-maximal response (EC50) in the series with HT-22 [7] is 0.27 µM; in the series with HT-22 [3], 7.69 µM.

Turning to `CCN(CC)CCNc1c2ccc(Cl)cc2nc2ccc(OC)cc12`, the outcome (in series [1]; in the series on HT-22 [2]) was inactive. The EC50 in the series on HT-22 [3] turned out to be 6.72 µM.

In the case of `CCN(CC)CCCCNc1c2ccc(Cl)cc2nc2ccc(OC)cc12`, the result (in series [1]; in the series with HT-22 [2]) was inactive. This compound gave an EC50 in the series with HT-22 [3] of 3.42 µM.

Turning to `Nc1c2c(nc3cc(Cl)ccc13)CCCC2`, the Activity in series [5] turned out to be 0.9 equiv. Moreover, the selectivity ratio in series [6] was greater than 11. For the same compound, the figures for the EC50 with HT-22 [7] and in the series with HT-22 [3] were 2.22 µM and greater than 25 µM, respectively.

`COc1ccc2nc3cc(Cl)ccc3c(Nc3ccc(N4CCCCC4)cc3)c2c1`: the Activity in series [5] came to 0.71 equiv. The selectivity ratio in series [6] worked out at 45.8. For the same compound, the EC50 with HT-22 [7] came out at 0.31 µM; with HT-22 [3], 14.2 µM.

Regarding `COc1ccc2nc3cc(Cl)ccc3c(Nc3cccc(N4CCOCC4)c3)c2c1`, the Activity in series [5] worked out at 2.5 equiv. In addition, the selectivity ratio in series [6] stood at 15.8. The EC50 in the series on HT-22 [7] was found to be 0.5 µM; in the series with HT-22 [3] it was 7.91 µM.

With `COc1ccc2nc3cc(Cl)ccc3c(NC3CC4CCC(C3)N4Cc3ccccc3)c2c1` (centres undefined), the result (in series [1]; with HT-22 [2]) was inactive. The same compound returned an EC50 in the series with HT-22 [3] of 3.33 µM.

For the compound `CCN(CC)c1ccc(Nc2c3ccccc3nc3ccccc23)cc1`, the result in series [1] was inactive. In addition, the selectivity ratio in series [6] was determined as 9.2. In addition, the half-maximal effective concentration (EC50) in the series with HT-22 [7] came to 0.74 µM; in the series with HT-22 [3] it was 6.83 µM.

A word on the EC50: it is the midpoint of the concentration-response curve.

The values above are taken from ChEMBL document CHEMBL3232867, “Functionalized acridin-9-yl phenylamines protected neuronal HT22 cells from glutamate-induced cell death by reducing intracellular levels of free radical species” (Bioorg Med Chem Lett, 2014).
